System: mir-143 binding site in 3′-UTR of ERK5
Assay: pGL3-ERK5-3′UTR luciferase assays in HeLa cells
Format: cell-based, human
Details: for luciferase expression: HeLa cells, 24 hours
Description: An expression system based on the pGL3-Control (Promega Corp., Madison Wis.) reporter vector and comprising predicted miRNA binding sites was used in transient transfections of HeLa cells with plasmids expressing oligomeric compounds mimicking miRNAs, pre-miRNAs or pri-miRNAs in order to assess the ability of these miRNA mimics to bind and regulate the expression of the luciferase reporter. The effect of increasing the copy number of the miRNA-binding site in the target was also tested by including multiple binding sites in artificial reporter constructs. It is understood that the presence of multiple miRNA-binding sites in a target can include binding sites for different miRNAs.
The following reporter plasmids were constructed by cloning the specified fragment into the XbaI site of the pGL3-control plasmid, placing the potential miRNA-binding site in the 3′-UTR of the luciferase reporter: The reporter plasmid pGL3-bulge(×3) contains three contiguous copies of the sequence ([…]; herein incorporated as SEQ ID NO: 874) which represents a sequence complementary to the mir-143 miRNA except that it is missing 2 nucleotides such that the mir-143 miRNA is presumed to adopt a bulged structure when it hybridizes to this target sequence. The pGL3-GLO1 reporter plasmid contains a DNA fragment comprising the 3′-UTR of the GLO1 sequence; this fragment was PCR-amplified using a primer beginning at nucleotide number 621 of the GLO1 sequence (GenBank Accession NM_006708.1, SEQ ID NO: 821) and the downstream primer hybridizing to the poly A tail. The pGL3-PP2A reporter plasmid contains a DNA fragment comprising the 3′-UTR of the PP2A gene; this fragment was PCR-amplified using a primer beginning at nucleotide number 921 of the PP2A sequence (GenBank Accession NM_004156.1) and the downstream primer hybridizing to the poly A tail. The reporter plasmid pGL3-ERK5-3′-UTR(×1) contains one copy of the sequence […] (herein incorporated as SEQ ID NO: 875), found in the 3′-UTR of ERK5 and predicted by Lewis, et al. to be bound by the mir-143 miRNA, and the reporter plasmid pGL3-ERK5-3′UTR(×3) has three contiguous copies of this sequence. The reporter plasmid pGL3-ERK5-3′UTR(ext) contains one copy of the sequence […] (herein incorporated as SEQ ID NO: 876), which includes an additional ten nucleotides at either end of the mir-143 binding site in 3′-UTR of ERK5 predicted by Lewis, et al. (Lewis et al., Cell, 2003, 115, 787-798). The plasmids pGL3-ERK5-cds(×1), pGL3-ERK5-cds(×2), pGL3-ERK5-cds(×3), and pGL3-ERK5-cds(×5) contain one, two, three or five contiguous copies, respectively, of the novel mir-143 binding site ([…]; herein incorporated as SEQ ID NO: 877) we identified within the coding sequence of ERK5. The unmodified pGL3-Control luciferase reporter vector was used as a negative control, and the pGL3-mir-143 sensor reporter plasmid was used as a positive control.
HeLa cells were routinely cultured and passaged as described. In some embodiments, HeLa cells were transfected with 0.05 μg of the relevant pGL3-sensor plasmid and 0.01 μg pRL-CMV plasmid. Additionally, in some embodiments, cells were treated at various dosages (11 nM, 33 nM, and 100 nM) with the following oligomeric compound mimics: 1) ds-mir-143, or 2) ds-Control as described. In accordance with methods described in Example 12, a luciferase assay was performed 24-hours after transfection. The results, shown in Tables 40 and 41, are an average of three trials. Data are presented as percent untreated control (luciferase plasmid only, not treated with oligomeric compound) luciferase expression, normalized to pRL-CMV levels.

## ds-mir-143: double-stranded RNA of ISIS 342199 hybridized to its perfect complement ISIS 342200 (sense UGAGAUGAAGCACUGUAGCUCA; antisense UGAGCUACAGUGCUUCAUCUCA; RNA, backbone not given here)
HeLa, 11, 33 and 100 nM
  luciferase activity from pGL3-ERK5-3′UTR(×1): did not inhibit luciferase activity
  luciferase activity from pGL3-ERK5-3′UTR(×3): inhibition of luciferase activity
Table 40, pGL3-ERK5-3′UTR(x1), 11 nM
  luciferase expression: 81.9 percent untreated control
Table 40, pGL3-ERK5-3′UTR(x1), 33 nM
  luciferase expression: 84.7 percent untreated control
Table 40, pGL3-ERK5-3′UTR(x1), 100 nM
  luciferase expression: 62.2 percent untreated control
Table 41, pGL3-ERK5-3′UTR(ext), 11 nM
  luciferase expression: 89.0 percent untreated control
Table 41, pGL3-ERK5-3′UTR(ext), 33 nM
  luciferase expression: 106.7 percent untreated control
Table 41, pGL3-ERK5-3′UTR(ext), 100 nM
  luciferase expression: 81.4 percent untreated control
Table 41, pGL3-ERK5-3′UTR(x1), 11 nM
  luciferase expression: 92.2 percent untreated control
Table 41, pGL3-ERK5-3′UTR(x1), 33 nM
  luciferase expression: 108.1 percent untreated control
Table 41, pGL3-ERK5-3′UTR(x1), 100 nM
  luciferase expression: 81.9 percent untreated control
Table 41, pGL3-ERK5-3′UTR(x3), 11 nM
  luciferase expression: 51.7 percent untreated control
Table 41, pGL3-ERK5-3′UTR(x3), 33 nM
  luciferase expression: 51.0 percent untreated control
Table 41, pGL3-ERK5-3′UTR(x3), 100 nM
  luciferase expression: 28.2 percent untreated control

Source: patent publication US8178506B2, “Oligomeric compounds and compositions for use in modulation of small non-coding RNAs” (Regulus Therapeutics Inc., priority 2003, dated 2012)
